Reference: US9494524B2, “Assay for analytes based on aggregation” (priority 2010, dated 2016)
Where two headings read alike, the source gives them in different places.

Tests used:
[1] = system: Phospholipase A2 from Naja mossambica mossambica; assay type: biochemical; conditions: in the presence of PLA2 and EDTA, room temperature (FIG. 3A)
Description: (§1) Methodology: Mixed solutions of 20 nm JR2EC-functionalised gold nanoparticles and 100 nm JR2KC2-loaded liposomes were prepared in accordance with Example 1. Absorption spectra were measured for the solutions under various solution conditions, as discussed below.
(§2) Methodology: JR2KC2 loaded liposomes, carboxyfluorescein (CF)-loaded liposomes and JR2EC-functionalised gold nanoparticles were prepared as described in Example 1. A mixture of PLA2 and chlorpromazine was added to the suspensions of liposomes. The assay response was recorded spectroscopically (in the UV-visible range) after incubating various concentrations of chlorpromazine with PLA2 (7 nM), functionalized gold nanoparticles (0.1 nM) and liposomes (1.4 nM) for 10 minutes at 37° C. For JR2KC2-loaded liposomes, the assay response was measured spectroscopically (in the UV-visible range) by recording spectra in the range 400-800 nm with 2 minute intervals using a Perkin Elmer Lambda 25 Spectrophotometer, and then extracting Δλmax.
(§3) This value was obtained by fitting the data to the monophasic Hill equation: […]

[2] = biological target: T1, Phospholipase A2 from Naja mossambica mossambica; experiment: traditional carboxyfluorescein (CF)-based fluorescence assay with CF-loaded liposomes; assay type: biochemical; conditions: PLA2 7 nM, 37° C.
T1 construct: IC50; other: CF-loaded liposomes, PLA2 7 nM, 37° C; other: PLA2 7 nM, gold nanoparticles 0.1 nM, liposomes 1.4 nM, 10 minutes at 37° C., Hill fit of Δλmax; lag time
Description: Carboxyfluorescein-loaded liposomes were prepared similarly, except that the rehydration solution was 50 mM CF, 20 mM phosphate, adjusted to pH 7 with NaOH. The untrapped dye was removed by filtration on a Sephadex G-25 column with PBS as eluent. The total lipid concentration in all samples was determined using the Stewart assay.^21
Methodology: Liposomes containing 50 mM of carboxyfluorescein were prepared as described in Example 1. The final lipid concentration in the sample was 30 μg/ml. The liposomes were incubated with solutions of PLA2 at a variety of concentrations for 30 minutes. Experiments were performed on a Perkin Elmer fluorimeter with an excitation wavelength of 490 nm and an emission wavelength of 520 nm. […]
as §2, with “A mixture of PLA2 and chlorpromazine was added to the suspensions of liposomes.” left out

PLA2 = conditions: literature values; read-out: IC50 previously reported; cited from earlier work
[3] = system: T1, Phospholipase A2 from Naja mossambica mossambica; assay type: biochemical
Description: as §1, §2, §3

Structure (SMILES) | effect on PLA2-induced nanoparticle aggregation [1] | IC50 [2] | IC50 (PLA2) | lag time ([3]; 10 μM inhibitor, 7 nM PLA2, about 5 minutes without the inhibitor) | concentration of active non-inhibited PLA2 relative to actual PLA2 concentration ([3]; 10 μM inhibitor, read from lag time (FIG. 12b)) | IC50 ([3]; PLA2 7 nM, gold nanoparticles 0.1 nM, liposomes 1.4 nM, 10 minutes at 37° C., Hill fit of Δλmax)
O=C(O)CN(CCN(CC(=O)O)CC(=O)O)CC(=O)O [EDTA, ethylenediaminetetraacetic acid] | prevented aggregation |  |  |  |  | 
CN(C)CCCN1c2ccccc2Sc2ccc(Cl)cc21 [chlorpromazine] |  | 10 µM | 10 to 100 µM | approximately 15 minutes | about half | 6.5 µM
